Entries after “also recorded” stand apart in the source; their conditions may differ.
How the values were obtained:
C57BI/6 mice = test: Glucose tolerance test (i.p. 2 g glucose/kg); type: in vivo
Experimental: Glucose Level Determination and Intraperitoneal Insulin Tolerance Test. Mice were fasted for 6 h. Glucose levels of mice were measured by an Accu-Chek Active meter (ROCHE) with blood sample obtained from the tail. For glucose tolerance, mice were injected i.p. with 2 g glucose/kg blood glucose was checked at different time points as indicated (at either 0, 30, 60, 90, 120, 160, 220 min.). For insulin resistance test, mice were injected intraperitoneally at a dose of 0.75 units/kg with human insulin (0.75 U/kg body weight; Sigma) at different time points as indicated, as for glucose tolerance after insulin injection and blood glucose was measured as described.

pancreatic islets = test: Insulin release from islets following glucose stimulation; type: cell-based, mice; details: insulin in the media (FIG. 11A)
Experimental: In order to understand better how CPX operates in β cells, it was tested to determine if it affected the efficiency by which insulin is produced following glucose stimulation. […] In view of the antidiabetic activity of CPX in vivo, the inhibition of insulin release appears contradictory. Thus, it was hypothesized that reduced insulin secretion may be linked to reduced ER stress and blunted unfolded protein response, which in turn could explain in the long run the increased survival and functionality of the animals that received CPX. To test this hypothesis, islets were exposed to CPX and high glucose and the levels were tested of chaperones BiP, GRP94 and CHOP that reflect the intensity of the UPR. […] In line with these observations and consistently with the insulin levels in the media (FIG. 11 at A) were also the levels of insulin in the β islets (FIG. 11 at B).

p21 = p21 stimulation in islets; type: cell-based, mice; details: dependence on p53
Experimental: Western Blotting. The mouse islets were treated with CPX 20 μM for 24 h and lysed in RIPA buffer [50 mM Tris, pH 7.2; 150 mM NaCl; 1% sodium deoxycholate; 0.1% SDS; 1% Triton-X 100; 10 mM NaF; 1 mM Na3VO4; protease inhibitor cocktail (1:1000, Sigma, St. Louis, Mo.)] and were subjected to immunoblot analysis by standard methods. Proteins were resolved on a 10% SDS-PAGE and transferred to a nitrocellulose membrane (Bio-Rad, Hercules, Calif.). […] After incubation with enhanced chemiluminescence reagents (Santa Cruz biotechnology Inc.), membranes were analyzed using an Image J software for Windows. Islets from wt, p21-deficient, p53-deficient and CHOP-deficient mice were exposed to CPX at 20 μM for 24 h under increasing glucose amounts in the culture media, then they were let to recover for 48 h in normal glucose-containing media and their survival was assessed (FIG. 9). […]

Cc1cc(C2CCCCC2)n(O)c(=O)c1 [CPX, 6-cyclohexyl-1-hydroxy-4-methylpyridin-2(1H)-one]
glucose tolerance (C57BI/6 mice; diabetic mice, CPX vs saline (FIG. 6A)): restored the response of diabetic mice to acute administration of glucose | glucose tolerance (C57BI/6 mice; non-diabetic wt mice on normal diet, CPX vs saline (FIG. 7B)): not affected | release of insulin (pancreatic islets): strong inhibition of insulin production; also recorded: suppressed the release of insulin | p21-stimulatory activity in the islets (p21): p53-independent
